Here are results for one substance from patent US12082907B2, “Systems, methods, and apparatus for multichannel imaging of fluorescent sources in real-time” (Memorial Sloan Kettering Cancer Center, priority 2013, dated 2024).

The subject of this assay is spontaneous melanoma miniswine model. The assay is described as follows: Pre-operative PET-CT SLN mapping in spontaneous melanoma miniswine model. The class given is in vivo, Sinclair miniature swine. From the text:
FIG. 6 depicts imaging of metastatic disease in a spontaneous melanoma miniswine model, in accordance with an embodiment of the present disclosure. ^124I-cRGDY-PEG-C dots and combined PET-optical imaging approaches can evaluate SLN mapping in a spontaneous melanoma miniswine model (Misfeldt, Vet. Immunol. Immunopathol. (1994); Oxenhandler, Am. J. Pathol. (1979); Millikan, J. Invest. Dermatol. (1974)) (Sinclair miniature swine, Sinclair Research Center). Image-guided metastatic disease detection, staging, and the assessment of differential tumor burden in SLN/s were evaluated in 4-10 kg miniswine (n=5) in conjunction with correlative histopathology. […]
FIGS. 7A-7I depict image-guided SLN Mapping in a spontaneous melanoma miniswine model using pre-operative PET imaging, in accordance with an embodiment of the present disclosure. These studies were expanded to include optical imaging using the portable ArteMIS™ fluorescence camera system, along with radiodetection using the gamma probe, for performing real-time assessments of the draining tumor lymphatics and nodal metastases. […] FIG. 7I depicts radioactivity levels of the primary tumor, SLN (in vivo, ex vivo), and a site remote from the primary tumor (i.e., background), using a handheld gamma probe. […]

In the case of “2-deoxy-2-[^18F]fluoro-D-glucose [^18F-FDG]”, where the note is “miniswine with granulomatous inflammatory changes (n=3), PET-CT”, the “discrimination of metastatic disease from inflammatory processes” value is reported as “failed to detect metastatic disease”. For the same substance, the “detection of nodal metastases on PET-CT” value (representative miniswine, neck nodes, dynamic imaging over 1 hour) was “clear absence of nodal metastases”.
